Patent EP4324461A1, “(E)-N-CINAMOYLAMINOALKANOLES WITH MELANOGENESIS INHIBITORY ACTIVITY” (UNIWERSYTET JAGIELLONSKI, priority 2022, dated 2024)

Key:
E. coli WP2 = test: Ames microplate test, E. coli WP2;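 note: bacteria treated 90 min at 37 °C in 24-well plates, then indicator medium dispensed to 384-well plates and incubated 48 h before yellow-well counting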
Procedure: The study used the Ames microplate test (Ames MPF™ Penta 2 by Xenometrix, Allschwil, Switzerland). Growth medium, exposure medium, indicator medium, positive controls, hepatic microsomal fraction, NADP, glucose-6-phosphate, Salmonella typhimurium and Escherichia coli strains were components of the purchased experimental kit. Bacteria were grown overnight in growth medium. They were then exposed to the test compound at the appropriate concentration in exposure medium without or with the rat microsomal fraction S9 in 24-well plates for 90 min at 37 °C with shaking. Then, indicator medium was added to the wells and pipetted into 384-well plates, which were incubated for 48 hours at 37 °C without shaking. Results were assessed by counting the wells in which the medium turned yellow for each experimental condition.

Hepatocarcinoma HepG2 [1] = test: Safety, MTT test in HepG2; assay type: cell-based; settings: 48 hours
Procedure: (§1) In order to test the safety of the compounds, both normal human cells were used: keratinocytes (HaCaT), fibroblasts (BJ), primary melanocytes that occur in the skin, as well as human cancer cells: the hepatocarcinoma line HepG2 and the neuroblastoma line SH-SY5Y, which are considered a model for the assessment of hepatocytotoxicity and neurocytotoxicity. The concentrations of the tested compounds in the range of 250-100 µM were used in the studies. The cell lines used in the research were purchased from the American Type Culture Collection (ATCC) and were cultured in media recommended by the manufacturer with the addition of FBS and antibiotics in an incubator ensuring appropriate culture conditions, i.e. humidity, temperature and CO2 concentration. Cells were seeded into multiwell plates and incubated with the test compounds for 48 hours. After this time, MTT and LDH tests were performed to assess cell viability. The MTT test is based on the ability to transform the substrate: [3-(4,5-dimethyl-2-thiazolyl)-2,5-diphenyl-2H-tetrazolium bromide into a colored product only by living cells. The absorbance at 570 nm, which corresponds to the absorption maximum for the product, is directly proportional to cell viability. The LDH test is based on testing the activity of the enzyme lactate dehydrogenase in the culture medium, which is released from cells as a result of damage to the cell membrane, e.g. as a result of cell death. Triton X-100 was used as a positive control in the test. The determination is colorimetric, the substrate is transformed by the released enzyme into a colored product, an increase in absorbance indicates a larger amount of the released enzyme, and thus confirms greater damage to cell membranes. Tables 7 and 8 present the results obtained, which correspond to the viability of cells incubated with the compounds in relation to the viability of cells constituting a control sample, i.e. incubated with the solvent (DMSO) at the same concentration as in the case of the groups tested in the MTT test or in relation to the results obtained for the Triton X-100 positive control in the LDH test. They indicate that the compounds are safe at the concentrations tested. Table 7. Viability of tested normal human cell lines: keratinocytes (HaCaT), fibroblasts (BJ) and primary melanocytes after incubation with the tested compounds - determination in the MTT test (% of solvent control ± SD) and LDH (percentage of positive control - Triton X-100.

Keratinocytes (HaCaT) [2] = test: Safety, MTT test in keratinocytes; assay type: cell-based; settings: 48 hours
Procedure: as §1

Keratinocytes (HaCaT) [3] = test: Safety, LDH test in keratinocytes; assay type: cell-based; settings: 48 hours, positive control Triton X-100
Procedure: as §1

S. typhimurium TA100 = test: Ames microplate test, TA100; assay type: cell-based, Salmonella typhimurium;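 note: reference level is the mean solvent-control yellow wells plus SD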
Procedure: Bacteria were grown overnight in growth medium.
Table 9. Ames microplate test results.

Hepatocarcinoma HepG2 [4] = test: Safety, LDH test in HepG2; assay type: cell-based; settings: 48 hours, positive control Triton X-100
Procedure: as §1

neuroblastoma SH-SY5Y = test: Safety, LDH test in SH-SY5Y; assay type: cell-based; settings: 48 hours, positive control Triton X-100
Procedure: as §1

SMILES	Hepatocarcinoma HepG2 MTT (Hepatocarcinoma HepG2 [1]; 100 µM)	Hepatocarcinoma HepG2 MTT (Hepatocarcinoma HepG2 [1]; 150 µM)	Hepatocarcinoma HepG2 MTT (Hepatocarcinoma HepG2 [1]; 200 µM)	Hepatocarcinoma HepG2 MTT (Hepatocarcinoma HepG2 [1]; 250 µM)	Keratinocytes (HaCaT) MTT (Keratinocytes (HaCaT) [2]; 100 µM)	Keratinocytes (HaCaT) MTT (Keratinocytes (HaCaT) [2]; 150 µM)	Keratinocytes (HaCaT) MTT (Keratinocytes (HaCaT) [2]; 200 µM)	Keratinocytes (HaCaT) MTT (Keratinocytes (HaCaT) [2]; 250 µM)	Keratinocytes (HaCaT) LDH (Keratinocytes (HaCaT) [3]; 100 µM)	Keratinocytes (HaCaT) LDH (Keratinocytes (HaCaT) [3]; 150 µM)	Keratinocytes (HaCaT) LDH (Keratinocytes (HaCaT) [3]; 200 µM)	Keratinocytes (HaCaT) LDH (Keratinocytes (HaCaT) [3]; 250 µM)	Hepatocarcinoma HepG2 LDH (Hepatocarcinoma HepG2 [4]; 100 µM)	Hepatocarcinoma HepG2 LDH (Hepatocarcinoma HepG2 [4]; 150 µM)	Hepatocarcinoma HepG2 LDH (Hepatocarcinoma HepG2 [4]; 200 µM)	Hepatocarcinoma HepG2 LDH (Hepatocarcinoma HepG2 [4]; 250 µM)	Neuroblastoma SH-SYSY LDH (neuroblastoma SH-SY5Y; 100 µM)	Neuroblastoma SH-SYSY LDH (neuroblastoma SH-SY5Y; 150 µM)	Neuroblastoma SH-SYSY LDH (neuroblastoma SH-SY5Y; 200 µM)	Neuroblastoma SH-SYSY LDH (neuroblastoma SH-SY5Y; 250 µM)	also measured
O=C(/C=C/c1ccc(Cl)cc1)NCCCCCO [Compound A-111, (2E)-3-(4-chlorophenyl)-N-(5-hydroxypentyl)prop-2-enamide]	101.10±6.01 % of solvent control	97.87±3.27 % of solvent control	98.19±3.27 % of solvent control	96.27±2.57 % of solvent control	101.68±3.45 % of solvent control	101.56±1.94 % of solvent control	101.04±2.77 % of solvent control	91.57±2.10 % of solvent control	4.69 percentage of positive control	4.43 percentage of positive control	6.49 percentage of positive control	13.55 percentage of positive control	4.90 percentage of positive control	4.73 percentage of positive control	5.48 percentage of positive control	9.75 percentage of positive control	4.90 percentage of positive control	4.61 percentage of positive control	5.98 percentage of positive control	6.77 percentage of positive control	Increase in the number of yellow wells compared to the reference level (E. coli WP2; 0.5 mM, +S9): 0.62; Increase in the number of yellow wells compared to the reference level (E. coli WP2; 0.5 mM, without S9): 1.46; Increase in the number of yellow wells compared to the reference level (E. coli WP2; 1.0 mM, +S9): 0.71; Increase in the number of yellow wells compared to the reference level (E. coli WP2; 1.0 mM, without S9): 1.10; Increase in the number of yellow wells compared to the reference level (E. coli WP2; 2.0 mM, +S9): 0.98; Increase in the number of yellow wells compared to the reference level (E. coli WP2; 2.0 mM, without S9): 1.10; Increase in the number of yellow wells compared to the reference level (S. typhimurium TA100; 0.5 mM, +S9): 0.97; Increase in the number of yellow wells compared to the reference level (S. typhimurium TA100; 0.5 mM, without S9): 0.74; Increase in the number of yellow wells compared to the reference level (S. typhimurium TA100; 1.0 mM, +S9): 0.47; Increase in the number of yellow wells compared to the reference level (S. typhimurium TA100; 1.0 mM, without S9): 0.39; Increase in the number of yellow wells compared to the reference level (S. typhimurium TA100; 2.0 mM, +S9): 0.67; Increase in the number of yellow wells compared to the reference level (S. typhimurium TA100; 2.0 mM, without S9): 0.42
O=C(/C=C/c1ccccc1)NCCCCCO [Compound A-133, (2E)-N-(5-hydroxypentyl)-3-phenylprop-2-enamide]	104.96±7.60 % of solvent control	100.66±7.39 % of solvent control	99.09±1.60 % of solvent control	98.92±2.34 % of solvent control	101.35±2.17 % of solvent control	101.40±2.08 % of solvent control	101.51±2.49 % of solvent control	95.53±2.80 % of solvent control	3.23 percentage of positive control	3.08 percentage of positive control	6.38 percentage of positive control	19.58 percentage of positive control	5.31 percentage of positive control	7.07 percentage of positive control	9.65 percentage of positive control	16.13 percentage of positive control	5.33 percentage of positive control	6.93 percentage of positive control	8.49 percentage of positive control	13.32 percentage of positive control	Increase in the number of yellow wells compared to the reference level (E. coli WP2; 0.5 mM, +S9): 0.27; Increase in the number of yellow wells compared to the reference level (E. coli WP2; 0.5 mM, without S9): 0.73; Increase in the number of yellow wells compared to the reference level (E. coli WP2; 1.0 mM, +S9): 0.44; Increase in the number of yellow wells compared to the reference level (E. coli WP2; 1.0 mM, without S9): 0.37; Increase in the number of yellow wells compared to the reference level (E. coli WP2; 2.0 mM, +S9): 0.53; Increase in the number of yellow wells compared to the reference level (E. coli WP2; 2.0 mM, without S9): 1.10; Increase in the number of yellow wells compared to the reference level (S. typhimurium TA100; 0.5 mM, +S9): 0.83; Increase in the number of yellow wells compared to the reference level (S. typhimurium TA100; 0.5 mM, without S9): 0.60; Increase in the number of yellow wells compared to the reference level (S. typhimurium TA100; 1.0 mM, +S9): 0.78; Increase in the number of yellow wells compared to the reference level (S. typhimurium TA100; 1.0 mM, without S9): 1.03; Increase in the number of yellow wells compared to the reference level (S. typhimurium TA100; 2.0 mM, +S9): 0.61; Increase in the number of yellow wells compared to the reference level (S. typhimurium TA100; 2.0 mM, without S9): 0.57
O=C(/C=C/c1ccc(Cl)cc1)NCCCO [H-330/21, (2E)-3-(4-chlorophenyl)-N-(3-hydroxypropyl)prop-2-enamide]	100.73±4.51 % of solvent control	100.44±3.93 % of solvent control	100.86±6.41 % of solvent control	93.16±1.71 % of solvent control	102.03±1.45 % of solvent control	101.42±2.04 % of solvent control	97.07±2.81 % of solvent control	94.89±1.06 % of solvent control	3.66 percentage of positive control	5.33 percentage of positive control	17.03 percentage of positive control	24.24 percentage of positive control	5.38 percentage of positive control	4.90 percentage of positive control	12.16 percentage of positive control	19.02 percentage of positive control	6.19 percentage of positive control	4.90 percentage of positive control	8.35 percentage of positive control	13.41 percentage of positive control	
O=C(/C=C/c1ccccc1)NCCCCCCO [H-425/21, (E)-N-(6-hydroxyhexyl)cinnamic acid amide]																					Increase in the number of yellow wells compared to the reference level (E. coli WP2; 0.5 mM, +S9): 0.75; Increase in the number of yellow wells compared to the reference level (E. coli WP2; 0.5 mM, without S9): 0.17; Increase in the number of yellow wells compared to the reference level (E. coli WP2; 1.0 mM, +S9): 0.83; Increase in the number of yellow wells compared to the reference level (E. coli WP2; 1.0 mM, without S9): 0.67; Increase in the number of yellow wells compared to the reference level (E. coli WP2; 2.0 mM, +S9): 0.75; Increase in the number of yellow wells compared to the reference level (E. coli WP2; 2.0 mM, without S9): 1.00; Increase in the number of yellow wells compared to the reference level (S. typhimurium TA100; 0.5 mM, +S9): 0.50; Increase in the number of yellow wells compared to the reference level (S. typhimurium TA100; 0.5 mM, without S9): 0.73; Increase in the number of yellow wells compared to the reference level (S. typhimurium TA100; 1.0 mM, +S9): 0.69; Increase in the number of yellow wells compared to the reference level (S. typhimurium TA100; 1.0 mM, without S9): 0.80; Increase in the number of yellow wells compared to the reference level (S. typhimurium TA100; 2.0 mM, +S9): 0.58; Increase in the number of yellow wells compared to the reference level (S. typhimurium TA100; 2.0 mM, without S9): 0.73
O=C(/C=C/c1ccc(Cl)cc1)NCCO [H-427/21, (2E)-3-(4-chlorophenyl)-N-(2-hydroxyethyl)prop-2-enamide]	99.61±4.37 % of solvent control	98.44±3.94 % of solvent control	97.07±4.00 % of solvent control	100.08±10.58 % of solvent control	100.47±3.65 % of solvent control	98.15±2.63 % of solvent control	99.24±3.00 % of solvent control	89.94±4.66 % of solvent control	2.76 percentage of positive control	3.69 percentage of positive control	6.50 percentage of positive control	17.79 percentage of positive control	3.09 percentage of positive control	4.45 percentage of positive control	5.98 percentage of positive control	13.51 percentage of positive control	3.09 percentage of positive control	4.45 percentage of positive control	5.98 percentage of positive control	8.87 percentage of positive control	
